{
  "source": "patent EP3521435A1",
  "about": "“A HIGH STRINGENCY SELECTION SYSTEM FOR PROTEIN EXPRESSION IN PROLINE-AUXOTROPHIC CELLS” (Bayer AG, priority 2018, dated 2019)",
  "key": {"CHO-K1 cells": {"test_system": "CHO-K1 cells", "assay": "Flow cytometric analysis of GFP expression (MFI, high fluorescing cells) in stably selected cell populations", "assay_type": "cell-based, Chinese hamster", "details": "day 15 post-transfection, pJF1555", "method": "To efficiently test the impact of different procedures on improving selection stringency, experimental testing in stable cell populations was performed. As test molecules, enhanced green fluorescent protein (GFP) as well as a human IgG1 were chosen. CHO-K1 cells adapted to growth in suspension in defined medium were obtained from SAFC and cultivated in EX-CELL CD CHO Fusion medium (SAFC 14365C). Custom-made EX-CELL CD CHO Fusion medium without L-Proline (Pro) and without L-Ornithine (Orn) (\"proline-free medium\") was obtained from SAFC. The expression vector system was based on modified versions of \"CET 1019 AS-puro-SceI\" and \"CET 1019 AD-puro-SceI\" for GFP and human IgG1, respectively, from Merck-Millipore, containing the Puromycin selection marker (Puromycin N-acetyl-transferase) known to exert a high selection stringency. To minimize variations in cell populations derived from using different transfections or different vectors, the first series of experiments were conducted using vectors into which a P5CS expression cassette was cloned upstream of a UCOE element, in addition to the Puromycin selection marker present downstream of a gene of interest. This way, it was possible to pool different transfections using the same vector to obtain a common starting point, and split the mixture according to different selection conditions, minimizing any variations that are not due to selection conditions themselves. Expression of long and short isoform of murine P5CS (Protein: Delta-1-pyrroline-5-carboxylate synthase; Gene: Aldh18a1; UniProtKB accession number: Q9Z110-1 & Q9Z110-2) was driven by a SV40 promoter. A SV40 polyadenylation sequence was used at the 3' end of the gene. More details can be found in Table 1. Typically, CHO cells were cultivated in EX-CELL CD CHO Fusion medium containing 6 mM GlutaMAX (Thermo Fisher, 35050-38) (\"CD-Fusion medium\") at 37 °C with 5% CO2. Cells were grown to logarithmic phase under shaking conditions for transfections. 1e7 cells/cuvette were transfected using nucleofection (Amaxa Nucleofector II, following the manufacturer's recommendations) with 5 µg of linearized DNA. After transfection, cells were taken up in 1 ml medium and transferred into 1 well of a 6 well microtiter plate (MTP) already containing 1 ml medium. The cells were incubated for 24 h without shaking, after which 9 ml medium were added and cells were washed (either in standard or proline-free medium). Multiple transfections were pooled, if applicable. Cells were adjusted to 2e5 viable cells/ml and 10 ml were transferred to T-25 flasks. Reference cell populations were selected using 10 µg/ml Puromycin in CD-Fusion medium. For P5CS-based selection, EX-CELL CD CHO Fusion medium (custom-made, SAFC) containing 6 mM GlutaMAX without proline and without ornithine was used (\"proline-free\" or \"CD-Fusion w/o Pro\" medium), with or without additional selection pressure.\nCell viability of the different populations was monitored over time. As soon as cell populations appeared to recover from selection pressure, cells were transferred to Shake Flask or TubeSpins for expansion in suspension under shaking conditions. Subsequently, stable cell populations transfected with IgG were seeded at 2e5 viable cells/ml for batch fermentation without selection pressure (i.e. standard CD-Fusion medium containing proline and no other selective agents). The cells were cultivated for 5-10 days, viable cell densities and productivity were monitored over time. IgG titers were determined using Poros A-HPLC method. Typically, final batch titers were recorded at a time point at which majority of cultures had around 70% viability. Stable cell populations transfected with GFP vector were subjected to analysis by flow cytometry using Guava easyCyte 8HT Benchtop Flow Cytometer (Millipore). 250 µl of cell culture were transferred to 96 MTP and washed with PBS. Dead cells were excluded from analysis using propidium iodide (PI). […]"}, "[1]": {"target": "T1, murine P5CS short isoform (Mus musculus, UniProt Q9Z110)", "T1 sequence (Q9Z110 1-793 isoform Q9Z110-2)": "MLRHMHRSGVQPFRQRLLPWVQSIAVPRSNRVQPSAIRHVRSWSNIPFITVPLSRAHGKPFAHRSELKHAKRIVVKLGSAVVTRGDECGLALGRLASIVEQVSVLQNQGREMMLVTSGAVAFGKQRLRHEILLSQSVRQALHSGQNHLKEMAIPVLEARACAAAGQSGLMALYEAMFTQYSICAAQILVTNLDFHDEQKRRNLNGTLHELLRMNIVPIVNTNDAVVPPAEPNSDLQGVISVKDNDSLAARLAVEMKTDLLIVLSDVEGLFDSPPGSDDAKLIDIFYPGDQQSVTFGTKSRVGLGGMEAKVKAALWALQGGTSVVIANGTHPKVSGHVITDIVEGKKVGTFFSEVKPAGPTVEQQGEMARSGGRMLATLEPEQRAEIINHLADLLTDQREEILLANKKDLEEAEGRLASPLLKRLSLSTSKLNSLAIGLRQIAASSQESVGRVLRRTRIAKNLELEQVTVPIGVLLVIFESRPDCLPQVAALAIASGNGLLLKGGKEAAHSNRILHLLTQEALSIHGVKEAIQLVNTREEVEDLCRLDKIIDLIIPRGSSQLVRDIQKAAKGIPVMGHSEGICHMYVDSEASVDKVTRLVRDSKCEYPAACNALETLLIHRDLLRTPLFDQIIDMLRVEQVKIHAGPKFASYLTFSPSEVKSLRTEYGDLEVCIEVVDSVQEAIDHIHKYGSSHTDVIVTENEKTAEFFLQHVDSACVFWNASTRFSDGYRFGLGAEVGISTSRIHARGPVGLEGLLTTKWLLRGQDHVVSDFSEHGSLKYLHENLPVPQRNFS", "details": "Hu et al.; cited from earlier work"}, "[2]": {"details": "CD-Fusion w/o Pro + 0.2 mM Orn + 10 µg/ml Puromycin"}, "[3]": {"details": "CD-Fusion w/o Pro + 1 mM Orn + 10 µg/ml Puromycin"}, "[4]": {"details": "CD-Fusion w/o Pro + 5 mM Orn + 10 µg/ml Puromycin"}},
  "data": [
    {"smiles": "NCCC[C@H](N)C(=O)O", "note": "[Orn, L-Ornithine]", "values": [
      {"measurement": "Frequency of high fluorescing cells", "setting": "CHO-K1 cells; CD-Fusion w/o Pro + 0.2 mM Orn", "result": 2.4, "unit": "%"},
      {"measurement": "Median Fluorescence Intensity (MFI) (yellow)", "setting": "CHO-K1 cells; CD-Fusion w/o Pro + 0.2 mM Orn", "result": 3337},
      {"measurement": "Frequency of high fluorescing cells", "setting": "CHO-K1 cells; [2]", "result": 4.1, "unit": "%"},
      {"measurement": "Median Fluorescence Intensity (MFI) (yellow)", "setting": "CHO-K1 cells; [2]", "result": 4665},
      {"measurement": "Frequency of high fluorescing cells", "setting": "CHO-K1 cells; CD-Fusion w/o Pro + 0.25 mM Ornithine", "result": 6.3, "unit": "%"},
      {"measurement": "Frequency of high fluorescing cells", "setting": "CHO-K1 cells; CD-Fusion w/o Pro + 0.5 mM Ornithine", "result": 4.1, "unit": "%"},
      {"measurement": "Frequency of high fluorescing cells", "setting": "CHO-K1 cells; CD-Fusion w/o Pro + 1 mM Orn", "result": 2.4, "unit": "%"},
      {"measurement": "Median Fluorescence Intensity (MFI) (yellow)", "setting": "CHO-K1 cells; CD-Fusion w/o Pro + 1 mM Orn", "result": 3121},
      {"measurement": "Frequency of high fluorescing cells", "setting": "CHO-K1 cells; [3]", "result": 2.8, "unit": "%"},
      {"measurement": "Median Fluorescence Intensity (MFI) (yellow)", "setting": "CHO-K1 cells; [3]", "result": 3739},
      {"measurement": "Frequency of high fluorescing cells", "setting": "CHO-K1 cells; CD-Fusion w/o Pro + 1 mM Ornithine", "result": 2.3, "unit": "%"},
      {"measurement": "Frequency of high fluorescing cells", "setting": "CHO-K1 cells; CD-Fusion w/o Pro + 2 mM Ornithine", "result": 0.7, "unit": "%"},
      {"measurement": "Frequency of high fluorescing cells", "setting": "CHO-K1 cells; CD-Fusion w/o Pro + 3 mM Ornithine", "result": 2.6, "unit": "%"},
      {"measurement": "Frequency of high fluorescing cells", "setting": "CHO-K1 cells; CD-Fusion w/o Pro + 4 mM Ornithine", "result": 1.5, "unit": "%"},
      {"measurement": "Frequency of high fluorescing cells", "setting": "CHO-K1 cells; CD-Fusion w/o Pro + 5 mM Orn", "result": 0.5, "unit": "%"},
      {"measurement": "Median Fluorescence Intensity (MFI) (yellow)", "setting": "CHO-K1 cells; CD-Fusion w/o Pro + 5 mM Orn", "result": 1435},
      {"measurement": "Frequency of high fluorescing cells", "setting": "CHO-K1 cells; [4]", "result": 6.1, "unit": "%"},
      {"measurement": "Median Fluorescence Intensity (MFI) (yellow)", "setting": "CHO-K1 cells; [4]", "result": 4103},
      {"measurement": "Frequency of high fluorescing cells", "setting": "CHO-K1 cells; CD-Fusion w/o Pro + 5 mM Ornithine", "result": 1.7, "unit": "%"},
      {"measurement": "Ki", "setting": "[1]", "result": "~250", "unit": "µM"}
    ]}
  ]
}
